# Reference: patent publication US9877937B2, “Compounds and methods for treating aberrant adrenocortical cell disorders” (Millendo Therapeutics, Inc., priority 2012, dated 2018)
# Structures can show the parent of a compound that is named as a salt. Where two headings read alike, the source gives them in different places.
# Key:
# [1] = tested on: xenografts of the human ACC-derived cell line H295R; test: H295R xenografts in SCID mice, treatment of established tumors (Examples 1 and 2); assay type: in vivo
# Method: To investigate the potential therapeutic effect of ATR-101 in a mouse model of adrenocortical carcinoma (ACC), xenografts of the human ACC-derived cell line H295R in SCID mice (6-7 week males) were established. After the xenografts had grown to measurable size, the mice were randomized in two groups. The treatment group was administered 300 mg/kg/day ATR-101 by oral gavage. The control group was administered the vehicle without ATR-101. The tumor size was measured using calipers before and on the indicated days after starting administration of ATR-101.
# To determine if the effects of ATR-101 on ACC-derived cell line xenotransplants were reproducible, the experiment using xenotransplants of the same H295R cell line in SCID mice (10-11 week males) were repeated.
# [2] = tested on: cortisol produced by H295R cells xenografted into SCID mice; test: Urinary cortisol levels in mice with H295R xenotransplants (DetectX cortisol assay kit); assay type: in vivo; details: 700 then 300 mg/kg/day; from 22 days after cell injection
# Method: FIG. 8 depicts the urinary cortisol levels in mice with H295R xenotransplants treated with vehicle or ATR-101. Randomized cohorts of 10 mice injected with H295R cells were administered 700 mg/kg/day ATR-101 for 4 days followed by 300 mg/kg/day ATR-101 or vehicle by gavage beginning 14 days after cell injection. Urine was collected on the days indicated beginning at 22 days after cell injection (8 days after the start of ATR-101 or vehicle administration), and the cortisol levels were determined using a DetectX® cortisol assay kit (Arbor Assays).
# To investigate the potential therapeutic benefit of ATR-101 in the establishment of ACC xenografts in a mouse model of ACC, ACC-derived cell line H295R was injected in SCID mice (6-7 week males). 1×10^8 cells in 0.2 ml DMEM were injected under the skin in the right dorsal flank regions of SCID mice. Two weeks after injection, the mice were randomized in groups of 10. ATR-101 was administered at 700 mg/kg/day for 4 days, followed by 300 mg/kg/day by oral gavage in 10% DMSO, 0.5% CMC, 0.9% NaCl, 0.2% Tween, pH 3. Control mice were administered vehicle. The tumor size was measured using calipers three times a week. Urinary cortisol was measured at various time points after start of ATR-101 or vehicle administration.
# [3] = tested on: ACC-derived xenotransplants (H295R); test: High dose ATR-101 on H295R xenotransplants in SCID mice (Example 7); assay type: in vivo; details: 1,000 mg/kg/day oral; 3 mice per group
# Source text: The effects of a high dose of ATR-101 on ACC-derived xenotransplants in SCID mice were also studied. Xenografts were produced as previously described with 3 mice in the ATR-101 treated group and 3 mice in the control group.
# ACTH-stimulated cortisol = test: Basal and ACTH-stimulated plasma cortisol levels in dogs; assay type: in vivo
# Method: […] 6 dogs/sex/dosage group were studied. […] Plasma cortisol concentrations (ng/ml) in male and female dogs were determined prior to ACTH stimulation and 0.5 and 1 hour after ACTH stimulation.
# adrenal gland = test: Adrenal gland weights in dogs after 28 days; assay type: in vivo
# Method: Left and right adrenal glands from male and female dogs treated with various doses of ATR-101 (0 mg/kg/day, 0.3 mg/kg/day, 3 mg/kg/day, or 30 mg/kg/day) for 28 days were collected at necropsy and weighed. Dose-related changes in adrenal gland weights occurred in both sexes (FIGS. 16A and 17A). Absolute and relative (adrenal-to-body (Adrenal:BW (%)) and adrenal-to-brain (Adrenal:BrW) weight ratios) adrenal weights were decreased 14% to 55% in both sexes at ≧3 mg/kg/day (FIGS. 16A-C and 17A-C). After the 4 week recovery period, adrenal weights remained decreased 6% to 11% in males at 3 mg/kg/day and 10% to 32% in both sexes at 30 mg/kg/day. […] Histologic changes in the adrenal glands persisted after the recovery period.
# [4] = Tissue distribution of ATR-101 in rats; assay type: in vivo; details: for Kp at 7 days: rat, female rats, 100 mg/kg/day for 7 days, N=3
# Method: Tissue distribution of ATR-101 in 3 rats and 3 dogs was examined. ATR-101 concentrations were measured in plasma, red blood cells, adrenal gland, liver, kidney, skeletal muscle, ovary, subcutaneous fat, and cerebral spinal fluid. […] ATR-101 concentrations in rats were higher in adrenal gland (˜2×) and ovary (˜1.4×) than in plasma. […] ATR-101 concentrations in dogs were similar in adrenal gland and plasma.
# [5] = biological target: complex II of the electron transport chain (Homo sapiens, UniProt O14521+P21912+P31040+Q99643); details: isolated mitochondria; cited from earlier work
# Chain of complex II of the electron transport chain (P31040 43-664): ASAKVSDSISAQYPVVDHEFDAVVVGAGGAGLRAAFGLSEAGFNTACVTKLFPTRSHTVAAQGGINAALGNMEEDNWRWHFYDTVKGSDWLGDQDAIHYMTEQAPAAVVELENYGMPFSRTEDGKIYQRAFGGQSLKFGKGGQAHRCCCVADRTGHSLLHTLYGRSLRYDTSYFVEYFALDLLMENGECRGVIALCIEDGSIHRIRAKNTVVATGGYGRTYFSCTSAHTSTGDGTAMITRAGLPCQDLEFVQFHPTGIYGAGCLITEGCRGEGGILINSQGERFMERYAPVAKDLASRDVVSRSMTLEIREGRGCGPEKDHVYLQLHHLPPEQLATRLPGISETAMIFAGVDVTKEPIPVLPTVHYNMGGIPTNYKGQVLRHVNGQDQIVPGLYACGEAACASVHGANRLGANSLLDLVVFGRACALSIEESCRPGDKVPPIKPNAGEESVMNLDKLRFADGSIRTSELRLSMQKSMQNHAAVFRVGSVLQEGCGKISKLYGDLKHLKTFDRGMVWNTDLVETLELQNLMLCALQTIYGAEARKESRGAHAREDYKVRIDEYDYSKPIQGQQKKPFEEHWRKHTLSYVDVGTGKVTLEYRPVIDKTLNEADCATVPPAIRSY
# Chain of complex II of the electron transport chain (P21912 29-280): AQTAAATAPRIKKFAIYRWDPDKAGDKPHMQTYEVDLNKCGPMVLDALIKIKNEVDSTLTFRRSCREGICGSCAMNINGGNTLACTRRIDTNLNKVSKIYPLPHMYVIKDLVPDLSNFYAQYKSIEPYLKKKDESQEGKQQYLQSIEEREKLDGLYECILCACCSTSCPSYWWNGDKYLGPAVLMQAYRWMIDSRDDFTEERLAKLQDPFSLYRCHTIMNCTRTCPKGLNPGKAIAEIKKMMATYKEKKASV
# Chain of complex II of the electron transport chain (Q99643 30-169): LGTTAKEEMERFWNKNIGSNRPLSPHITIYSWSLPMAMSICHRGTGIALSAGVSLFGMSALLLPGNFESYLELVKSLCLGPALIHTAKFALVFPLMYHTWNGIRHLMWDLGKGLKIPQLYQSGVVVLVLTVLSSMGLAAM
# Chain of complex II of the electron transport chain (O14521 57-159): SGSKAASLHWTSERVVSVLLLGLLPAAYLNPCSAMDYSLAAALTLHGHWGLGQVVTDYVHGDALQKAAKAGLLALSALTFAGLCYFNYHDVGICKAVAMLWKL
smiles,measurement,setting,value
"CC(C)c1cccc(C(C)C)c1NC(=O)NCC1(c2ccc(N(C)C)cc2)CCCC1 [ATR-101, N-(2,6-bis(1-methylethyl)phenyl)-N′-((1-(4-(dimethylamino)phenyl)cyclopentyl)-methyl)urea hydrochloride]",decrease in tumor size,"[1]; 300 mg/kg/day oral gavage, 8 days after start, n=3, relative standard deviation 32%, control increased 400%",50%
same,time to resumption of tumor growth after change to Formulation II,"[1]; 300 mg/kg/day, formulation changed after first week",within two days
same,body condition score (BCS),"[1]; 300 mg/kg/day, treatment group, control 2.0",3.0
same,tumor size versus control group,"[1]; 15 days after beginning of administration, p<0.05",significantly smaller
same,time to resumption of tumor growth after start of administration,[1]; Example 2,within eight days
same,tumor size,"[1]; Example 2, 300 mg/kg/day, six days after start, n=2",decreased to undetectable size
same,tumor size as fraction of size of tumors in control mice,"[1]; Example 2, 13 days after start",one-eighth to one-third
same,regression of xenograft relative to size before administration,[1]; all mice with tumors smaller than 300 mm^3,less than half of its size
same,time at which tumors exceeded pre-treatment size,[1]; both experiments,8 to 15 days
same,time at which tumors resumed growth after start of administration,[1]; both experiments,7 to 9 days
same,time of maximal therapeutic effect after start of administration,[1]; both experiments,6 to 8 days
same,post-mortem tumor weight (mean),"[1]; first experiment, surviving treated mice, SD of the mean 0.13 g, control 1.23 g, p<0.05",0.71 g
same,total body weight (mean),"[1]; first experiment, treatment group, SD of the mean 1 g, control 19 g",24 g
same,effect on tumor growth in mice with large tumors,[1]; two mice with tumors of 300 mm^3 and 900 mm^3,did not halt the tumor growth
same,average urinary cortisol levels versus vehicle,[2],lower
same,tumor growth versus vehicle treated controls,[3],significantly reduced tumor growth
same,cortisol during recovery period,"ACTH-stimulated cortisol; days 42 and 56, drug-free recovery",reversal of the cortisol-suppressive effects
same,ACTH responses (plasma cortisol),"ACTH-stimulated cortisol; male and female dogs, 3 mg/kg/day and 30 mg/kg/day, from day 7 through day 14 and day 28",Marked drug-associated decreases
same,histologic changes in adrenal glands after recovery period,adrenal gland; after 4 week recovery,persisted
same,histologic changes associated with adrenal weight changes,"adrenal gland; both sexes, ≧3 mg/kg/day","adrenal cortical atrophy, fibrosis, and vacuolation"
same,Kp at 7 days,"[4]; adrenal gland (relative to plasma), read-out: adrenal gland concentration relative to plasma",~2
same,Kp at 7 days,"[4]; ovary (relative to plasma), read-out: ovary concentration relative to plasma",~1.4
same,blood-brain barrier crossing,[4]; rats,does not appear to cross the blood-brain barrier
same,level in cerebral spinal fluid (CSF),"[4]; rats, likely contamination of CSF with blood",Low levels
same,effect on complex II of the electron transport chain,[5],inhibit
